In test [1] the target is T1, Isoprenylcysteine carboxyl methyltransferase (Icmt) (Homo sapiens, UniProt O60725).
T1 construct: made in house; host or cells: Sf9 (Spodoptera frugiperda) insect cells; membrane preparation provided by Prof PJ Casey (Duke University / Duke-NUS)
As to the kind of experiment: Icmt inhibition, scintillation proximity assay with BFC and [3H]SAM. The format is biochemical. The conditions noted are these: for IC50: Table 3, mean of two or more determinations (SD), read-out: IC50 Icmt. The procedure:
Isoprenylcysteine carboxyl methyltransferase (Icmt) was provided by Prof PJ Casey of Duke University, NC. S-Adenosylmethionine (SAM), magnesium chloride Hexahydrate (MgCl2), tartrazine, 4-(2-hydroxyethyl)-1-piperazineethanesulfonic acid (HEPES), dimethyl sulfoxide (DMSO) and dithiotreitol (DTT) were purchased from Sigma (Mo, USA). [^3H] S-Adenosylmethionine, [^3H] Biotin and Streptavidin PVT SPA Beads were purchased from PerkinElmer (Waltham, Mass.). Assays were performed in black small volume 384 well microtitre plates from PerkinElmer.
Stocks of Icmt membrane protein (30 μg/μL) stored at −80° C. were thawed at 37° C. and placed on ice. The Icmt membrane protein was diluted in assay buffer (70 mM HEPES, 100 mM NaCl, 5 mM Mg Cl2 and 3 mM DTT, pH 7.5) to a 0.03 μg/μL working concentration and added to the wells of a microtitre plate (5 μl/well). To each wells 20 μl of the reaction buffer was added. The reaction was initiated with the addition of 5 μL of substrate solution containing BFC (6 μM), SAM (3 μM) and 30 μCi/mL [^3H] SAM (all of these reagents were stored at −20° C., SAM reagents thawed on ice, BFC thawed at RT). The plate was incubated at 37° C. for 30 minutes. The reaction was stopped with the addition of 15 μL of stop solution containing SAM (150 μM) and Streptavidin SPA beads (20 mg/mL). Following overnight incubation at ambient temperature radioactivity was counted on a Microbeta Trilux™ (Perkin Elmer, Turku, Finland).
Sf9 (Spodoptera frugiperda ovarian) membranes containing recombinant Icmt were provided by Prof PJ Casey (Duke University, NC and Duke-NUS Graduate Medical School). S-Adenosylmethionine (SAM), magnesium chloride hexahydrate, tartrazine, 4-(2-hydroxyethyl)-1-piperazineethanesulfonic acid (HEPES) and dithiotreitol (DTT) were purchased from Sigma (Mo, USA). [^3H] S-Adenosylmethionine, [^3H] biotin and streptavidin PVT SPA Beads were purchased from PerkinElmer (Waltham, Mass.). Biotinylated farnesylcysteine was synthesized as described in an earlier report. Assays were performed in black 384-well microtitre plates from PerkinElmer.
A vial of Icmt membrane protein (30 μg/μL) stored at −80° C. was thawed at 37° C. and placed on ice. The protein was diluted in assay buffer (70 mM HEPES, 100 mM NaCl, 5 mM MgCl2, 3 mM DTT, pH 7.5) to 0.03 μg/μL and aliquots were added to each well (5 μL/well), followed by 20 μL of the assay buffer. The reaction was initiated by adding 5 μL of a solution containing biotinylated BFC (6 μM), SAM (3 μM) and 30 μCi/mL [^3H] SAM. These reagents were stored at −20° C. and thawed on ice (SAM, [^3H] SAM) or at room temperature (BFC). The plate was incubated at 37° C. for 30 minutes after which the reaction was quenched by adding 15 μL of a solution comprising SAM (150 μM) and streptavidin SPA beads (20 mg/mL). After overnight incubation at ambient temperature, radioactivity was counted (Microbeta Trilux™, Perkin Elmer, Turku, Finland). The degree of inhibition was assessed from the radioactivity obtained in presence of test compound compared to that obtained from the control sample […]. Two independent determinations were made for each test compound.
(Scintillation proximity formats need no separation of bound from free tracer.)

Test [2] relates to PC3 Prostrate cancer cells. Nature of the test: Antiproliferative activity / cell viability (MTS, 72 h). Type of test: cell-based, human.
Description: (§1) The relative number of the live cells was determined using the CellTiter® 96 AQueous One Solution Cell Proliferation Assay (Promega). Determinations were made in duplicates or triplicates.
Test [3] has as its system MDA-MB-231 human breast cells. The test is described as above.
Description: as §1
Human breast cancer MDA-MB231, liver cancer HepG2 and lung fibroblast cells were purchased from ATCC (Rockville, Md.). MDA-MB231 cells and IMR-90 cells were grown in DMEM (Sigma Aldrich, Singapore) and EMEM (Sigma Aldrich, Singapore) respectively at 37° C., 5% CO2. DMEM was supplemented with 10% fetal bovine serum (Invitrogen, heat treated at 65 deg C., 30 min), 50 units/L penicillin-G and 50 μg/mL streptomycin. EMEM was supplemented with 10% fetal bovine serum (heat treated as above), 100 mg/L penicillin-G and 100 μg/mL streptomycin.
Cell viability was assessed using CellTitre 96® Aqueous One Solution (Promega, Madison, Wis.) containing the tetrazolium salt 3-(4,5-dimethylthiazol-2-yl)-5-(3-carboxymethoxyphenyl)-2-(4-sulfophenyl)-2H-tetrazolium (MTS). […] Final concentration of DMSO per well was maintained at 0.5% v/v. […] Cell viability was determined from the expression:
The plot was constrained to ≧0 and ≦100%. At least 3 independent determinations of IC50 were made using two different stock solutions of test compound.
Where [4] appears, read: Homo sapiens, PC-3M, Table 3, 72 h, mean (SD), read-out: IC50 PC3.
[5] abbreviates: Homo sapiens, MDA-MB-231, 72 h, read-out: IC50MDA-MB-231 (μM).
Where [6] appears, read: Table 3, 72 h, mean (SD), read-out: IC50 PC3.
Where [7] appears, read: read-out: IC50MDA-MB-231, Table 3, 72 h, mean (SD).
Where [8] appears, read: Homo sapiens, Table 5, read-out: IC50 (μM) PC 3.
Setting [9] is: Homo sapiens, MDA-MB-231, read-out: IC50 (μM) MDA-MB231.

Where two headings read alike, the source gives them in different places.

T1 sequence (O60725 whole entry, species assumed): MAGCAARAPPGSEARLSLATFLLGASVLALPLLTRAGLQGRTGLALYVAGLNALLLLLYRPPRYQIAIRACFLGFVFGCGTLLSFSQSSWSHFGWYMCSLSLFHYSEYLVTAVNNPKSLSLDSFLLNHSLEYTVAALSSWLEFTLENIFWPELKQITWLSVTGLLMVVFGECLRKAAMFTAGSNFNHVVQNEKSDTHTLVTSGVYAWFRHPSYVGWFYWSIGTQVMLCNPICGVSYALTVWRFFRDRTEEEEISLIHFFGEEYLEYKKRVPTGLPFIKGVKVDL

As to `CCCCCCCCn1cc(CN(CC)CC)c2cc(-c3ccccc3F)ccc21` [Compound 8-2], the IC50 in test [1] was found to be 2.56 µM.

In the case of `CCCCCCCCn1cc(CN(CC)CC)c2cc(-c3cccc(F)c3)ccc21` [Compound 8-3], the IC50 in test [1] was 1.61 µM.

For the compound `CCCCCCCCn1cc(CN(CC)CC)c2cc(-c3ccccc3C(F)(F)F)ccc21` [Compound 8-4], the IC50 is 1.28 µM in test [1], 9.66 µM in test [2] (setting [4]) and 6.69 µM in test [3] (setting [5]).

On to `CCCCCCCCn1cc(CN(CC)CC)c2cc(-c3cccc(C(F)(F)F)c3)ccc21` [Compound 8-5], for which the IC50 in test [1] amounted to 2.61 µM.

As for `CCCCCCCCn1cc(CN(CC)CC)c2cc(-c3cccc(OC(F)(F)F)c3)ccc21` [Compound 8-6], the IC50 in test [2] (setting [6]) worked out at 11.2 µM; in test [3] (setting [7]), 7.17 µM.

In the case of `CCCCCCCCn1cc(CN(CC)CC)c2cc(-c3cnccc3F)ccc21` [Compound 8-8, Diethyl-[5(4-Fluoro-pyrdin-3yl)-1-octyl-1H-indol-3ylmethyl]-amine], the IC50 in test [1] came to 0.96 µM; in test [2] (setting [6]), 5.88 µM; in test [3] (setting [7]), 5.14 µM.

Turning to `CCCCCCCCn1cc(CN(CC)CC)c2cc(-c3cnc(C#N)nc3)ccc21` [Compound 8-19, 5-(3-Diethylaminomethyl-1-octyl-1H-indol-5-yl)-pyrimidine-2-carbonitrile], the IC50 turned out to be 2.26 µM in test [1], 5.92 µM in test [2] (setting [4]) and 3.95 µM in test [3] (setting [5]).

Take `CCCCCCCCn1cc(CN(CC)CC)c2cc(-c3ccc(C#N)cc3)ccc21` [Compound 8-20, 4-(3-Diethylaminomethyl-1-octyl-1H-indol-5-yl)-benzonitrile]: the IC50 in test [1] amounted to 2.45 µM; in test [2] (setting [4]), 6.19 µM; in test [3] (setting [5]), 7.72 µM.

On to `CCCCCCCCn1cc(CN(CC)CC)c2cc(-c3cccc(O)c3)ccc21` [Compound 8-21, 3-(3-Diethylaminomethyl-1-octyl-1H-indol-5-yl)-phenol], for which the IC50 in test [1] was 5.43 µM; in test [2] (setting [4]) it was 17.4 µM; in test [3] (setting [5]), 14.8 µM.

`CCCCCCCCn1c2c(c3cc(F)ccc31)CN(C)CC2` [Compound 199, 8-fluoro-2-methyl-5-n-octyl-1,2,3,4-tetrahydropyrido[4,3-b]indole]: the results for the IC50 in test [2] (setting [4]) and in test [3] (setting [5]) were 15.5 µM and 19.2 µM, respectively.

Turning to `CCCCCCCCn1c2c(c3cc(F)ccc31)CN(Cc1ccc(O)cc1)CC2` [Compound 205, 8-fluoro-2-(4′-hydroxybenzyl)-5-n-octyl-1,2,3,4-tetrahydropyrido[4,3-b]indole], the IC50 was determined as 10.5 µM in test [2] (setting [4]), 10.5 ± 0.28 µM in test [2] (setting [8]), 10.5 µM in test [3] (setting [5]) and 10.5 ± 0.08 µM in test [3] (setting [9]).

For `CCCCCCCCn1c2c(c3cc(-c4cccc(C)c4)ccc31)CN(C)CC2` [Compound 235, 2-methyl-8-m-tolyl-5-n-octyl-1,2,3,4-tetrahydropyrido[4,3-b]indoles], the IC50 in test [1] stood at 10.3 µM; in test [2] (setting [4]), 7.58 µM; in test [3] (setting [5]) it was 9.18 µM. Further, the “times less potent as an Icmt inhibitor than 8-1” value in test [1] (ratio of IC50 Icmt) is given as around 5.

For `CCCCCCCCn1c2c(c3cc(-c4cccc(C)c4)ccc31)CN(Cc1ccc(O)cc1)CC2` [Compound 240, 2-(4′-hydroxybenzyl)-8-m-tolyl-5-n-octyl-1,2,3,4-tetrahydropyrido[4,3-b]indoles], the figures for the IC50 in test [2] (setting [6]) and in test [3] (setting [7]) were 10.2 µM and 14.8 µM, respectively.

As to `CCCCCCCCn1c2c(c3cc(-c4cccc(C)c4)ccc31)CN(C(C)C)CC2` [Compound 260, 2-isopropyl-8-m-tolyl-5-n-octyl-1,2,3,4-tetrahydropyrido[4,3-b]indoles], the IC50 was found to be 8.3 µM in test [1]; 9.69 µM in test [2] (setting [4]); 9.69 ± 1.84 µM in test [2] (setting [8]); 7.38 µM in test [3] (setting [5]); 7.38 ± 0.48 µM in test [3] (setting [9]).

As for `CC(C)=CCn1c2c(c3cc(-c4cccc(C)c4)ccc31)CN(Cc1ccc(O)cc1)CC2` [Compound 300, 2-(4′-hydroxybenzyl)-5-isoprenyl-8-m-tolyl-1,2,3,4-tetrahydropyrido[4,3-b]indoles], the IC50 in test [2] (setting [4]) was 13.3 µM; in test [2] (setting [8]), 13.3 ± 5.7 µM; in test [3] (setting [5]) it was 9.38 µM; in test [3] (setting [9]), 9.38 ± 0.92 µM.

As to `CCCCCCCCn1c2c(c3cc(-c4ccc(S(C)(=O)=O)cc4)ccc31)CN(C)CC2` [Compound 306, 2-methyl-8-(4′-(methylsulfonyl)phenyl)-5-n-octyl-1,2,3,4-tetrahydropyrido[4,3-b]indole], the IC50 stood at 5.38 µM in test [2] (setting [4]) and 4.6 µM in test [3] (setting [5]).

With `CCCCCCCCn1c2c(c3cc(-c4cnc(N)nc4)ccc31)CNCC2` [Compound 309, 8-(2′-amino-pyrimidin-5-yl)-5-n-octyl-1,2,3,4-tetrahydropyrido[4,3-b]indole], the results for the IC50 in test [2] (setting [4]) and in test [3] (setting [5]) were 4.44 µM and 2.72 µM, respectively.

For `CCCCCCCCn1c2c(c3cc(-c4ccc(S(C)(=O)=O)cc4)ccc31)CNCC2` [Compound 314, 8-(4′-(methylsulfonyl)phenyl)-5-n-octyl-1,2,3,4-tetrahydropyrido[4,3-b]indole], the IC50 in test [2] (setting [4]) was found to be 2.92 µM; in test [3] (setting [5]), 2.1 µM.

With `CCCCCCCCn1c2c(c3cc(-c4ccnc(F)c4)ccc31)CNCC2` [Compound 315, 8-(2′-fluoropyridin-4-yl)-5-n-octyl-1,2,3,4-tetrahydro-1H-pyrido[4,3-b]indole], the IC50 in test [2] (setting [6]) was determined as 7.69 µM; in test [3] (setting [7]), 4.59 µM.

Regarding `CCCCCCCCn1c2c(c3cc(-c4cccc(C)c4)ccc31)CN(Cc1ccccc1)CC2` [cpd 214], the IC50 in test [2] (setting [8]) came to 10.9 ± 2.31 µM; in test [3] (setting [9]), 8.6 ± 1.68 µM.

With `CCCCCCCCn1cc(C(=O)C(N)=O)c2cc(-c3cccc(C)c3)ccc21` [cpd 273], the IC50 in test [2] (setting [8]) was 16.7 ± 1.68 µM; in test [3] (setting [9]), above 50 µM.

As to `CCCCCCCCn1c2c(c3cc(-c4cnc(N)nc4)ccc31)CN(C(N)=O)CC2` [cpd 319], the IC50 in test [2] (setting [8]) worked out at 9.43 ± 3.85 µM.

With `CCCCCCCCn1c2c(c3cc(-c4cccc(C)c4)ccc31)CN(C(N)=O)CC2` [cpd 321], the IC50 in test [2] (setting [8]) stood at 10.5 ± 3.08 µM.

For the compound `CCCCCCCCn1c2c(c3cc(-c4ccnc(F)c4)ccc31)CN(C(N)=O)CC2` [cpd 323], the IC50 in test [2] (setting [8]) was found to be 10.2 ± 3.63 µM.

For the compound `CCCCCCCCn1c2c(c3cc(-c4ccc(S(C)(=O)=O)cc4)ccc31)CN(C(N)=O)CC2` [cpd 324], the IC50 in test [2] (setting [8]) was 8.88 ± 0.62 µM.

`CCCCCCCCn1c2c(c3cc(-c4cnc(N)nc4)ccc31)CN(C(C)C)CC2` [cpd 474]: the IC50 came out at 9.32 ± 0.65 µM in test [2] (setting [8]) and 9.17 ± 0.54 µM in test [3] (setting [9]).

In the case of `CCCCCCCCn1c2c(c3cc(-c4cnc(N)nc4)ccc31)CN(C(=O)OCC)CC2` [cpd 480], the IC50 is 21.3 µM in test [2] (setting [8]) and 17 µM in test [3] (setting [9]).

Take `CCCCCCCCn1c2c(c3cc(-c4cccc(C)c4)ccc31)CN(C(=O)OCC)CC2` [cpd 481]: the IC50 in test [2] (setting [8]) worked out at 30.1 µM; in test [3] (setting [9]) it was 25.9 µM.

Take `CCCCCCCCn1c2c(c3cc(-c4cnc(N)nc4)ccc31)CN(S(C)(=O)=O)CC2` [cpd 488]: the IC50 in test [3] (setting [9]) stood at 27.4 µM.

For `CCCCCCCCn1c2c(c3cc(-c4cnc(N)nc4)ccc31)CN(CC)CC2` [cpd 490], in test [3] (setting [9]), the IC50 turned out to be 5.85 µM.

On to `CCCCCCCCn1c2c(c3cc(-c4cnc(N)nc4)ccc31)CN(CCO)CC2` [cpd 510], for which the values for the IC50 in test [2] (setting [8]) and in test [3] (setting [9]) were 3.97 ± 0.42 µM and 3.42 ± 0.72 µM, respectively.

Take `CCCCCCCCn1cc(CC(N)=O)c2cc(-c3cnc(N)nc3)ccc21` [cpd 512]: the IC50 in test [2] (setting [8]) and in test [3] (setting [9]) was above 50 µM each time.

`CCCCCCCCn1cc(CC(N)=O)c2cc(-c3ccnc(F)c3)ccc21` [cpd 513]: the IC50 in test [2] (setting [8]) was 25.6 ± 3.48 µM; in test [3] (setting [9]), 26.1 ± 0.41 µM.

The record behind these values is patent US9422238B2, “ICMT inhibitors” (National University of Singapore, priority 2012, dated 2016).
